Test results reported in patent US20240293364A1, “BIOMARKERS FOR CANCER THERAPY USING MDM2 ANTAGONISTS” (OTSUKA PHARMACEUTICAL CO., LTD., priority 2021, published 2024).

Legend:
Type in all cases: cell-based
A2780 = assay: CellTiter-Glo cell viability, combination matrix with PARP inhibitors (HSA synergy), A2780; conditions: A2780, TP53 WT, DDR defective, 72 h
Description: The cell line will be treated with test articles alone, matrix combinations with test articles and culture medium as vehicle control.
• 1. Harvest cells during the logarithmic growth period and count cell number. • 2. Adjust cell concentrations to 4.0×10^4cells/mL with respective culture medium. • 3. Add 100 μL cell suspensions to three 96-well plates (plates A, B and C) with the final cell density of 4×10^3 cells/well. 4a. Next Day: For the Plates of TO Reading: • 1) Equilibrate the plate A and its content at RT for approximately 30 min. • 2) Add 50 μL CellTiter-Glo reagent to each well. • 3) Mix content for 5 min on an orbital shaker to induce cell lysis. • 4) Allow the plate to incubate at RT for 20 min to stabilize luminescent signal. • 5) Record luminescence (TO) using EnVision Multi Label Reader. 4b. For the Plates of Test Reading: • 1) Prepare 500× solution of test articles (Top working concentration: 10 μM/100 μM of test articles in media with 3-fold serial dilutions to achieve 9 dose levels. • 2) Prepare 10× reference control solutions (Top working concentration: 100 μM in media with 3.16-fold serial dilutions. • 3) Dispense 500× drug solutions in each well (triplicate for each drug concentration) of the plate B using digital dispenser. […] Record luminescence (T3) using EnVision Multi Label Reader. […]

[1] = system: MSI-H colorectal cancer PDOs; assay: Proliferation assays on patient-derived organoids (PDOs), MSI-H colorectal cancer; conditions: 6 MSI-H colorectal cancer PDOs (FIG. 4C)
Description: (§1) Organoids were retrieved from the CrownBIO organoid bank and expanded before getting enough quantity according to standard operation procedure. One day before organoids seeding, the needed number of organoids were passaged 1:1 using 50% Matrigel and 50% corresponding culture medium. On Day 0 organoids were seeded and compound added: organoids were collected by adding 20 μl 100× Dispase solution to each well from a 6-well plate, and incubating at 37C for 30 min. After incubation, organoids were collected from all wells and pipetted through a pre-wet 100 μm filter into a 50 ml plastic tube, then filtered the flow through over a pre-wet 20 μm filter, inverted the 20 μm filter and recovered the organoids in a new 50 ml tube, Collect organoids were then resuspended in the corresponding culture media, and counted. Organoids cell suspensions were added to 384-well plate by Multidrop dispenser. 2-4 hours after organoids seeding, compounds were added by Tecan D300e, then plates were placed back into incubator for 5 days' incubation. On day 5, proliferation was assayed by CellTiter-Glo assay. […] The plate was then read (for luminescence) in an Envision plate reader.

[2] = system: ATM mutant cell lines (HCC1500, LNCap, HT-144, HepG2); assay: Proliferation assays on cancer cell lines (CellTiter-Glo), ATM mutant cell lines; conditions: four ATMmut cell lines: HCC1500 breast, LNCap prostate, HT-144 melanoma, HepG2 liver (FIG. 2C)
Description: (§2) Cancer cells were cultured in appropriate medium. […] Each cell line was tested in triplicates.

[3] = system: patient-derived organoids (PDOs); assay: Proliferation assays on patient-derived organoids (PDOs), BRCA1/BRCA2/ATM status
Description: as §1

MSI-H cell lines = assay: Proliferation assays on cancer cell lines (CellTiter-Glo), MSI-H cell lines; conditions: eight MSI-H cell lines from different indications (FIG. 4B)
Description: as §2

SMILES: CC[C@@](O)(c1cc(F)c2c(c1)C(=O)N([C@H](c1ccc(Cl)cc1)[C@H](C)C(=O)O)[C@@]2(OC)c1ccc(Cl)cc1)C1CCOCC1 [Example 124, (2S,3S)-3-(4-chlorophenyl)-3-[(1R)-1-(4-chlorophenyl)-7-fluoro-5-[(1S)-1-hydroxy-1-(oxan-4-yl)propyl]-1-methoxy-3-oxo-2,3-dihydro-1H-isoindol-2-yl]-2-methylpropanoic acid]
- HSA_Average <−5 Antagonism >+5 Synergy (A2780; Compound 1 in combination with Olaparib): 6.2
- HSA_Average <−5 Antagonism >+5 Synergy (A2780; Compound 1 in combination with Talazoparib): 12.3
- sensitivity as measured by reduction in cell proliferation [1]: showed sensitivity
- sensitivity as measured by reduction in cell proliferation [2]: showed sensitivity
- sensitivity as measured by reduction in cell proliferation ([3]; 4 PDOs with alterations in either ATM, BRCA1 and/or BRCA2 (FIG. 2F-G)): showed sensitivity
- sensitivity as measured by reduction in cell proliferation ([3]; 4 additional PDOs with no alterations in ATM, BRCA1 and/or BRCA2): resistant
- sensitivity as measured by reduction in cell proliferation (MSI-H cell lines): showed sensitivity
